Laboratory results reported in US20100267561A1, “HERBICIDAL PYRIDAZINONE DERIVATIVES” (priority 2007, published 2010).

Legend:
Format in all cases: in vivo
corn (Zea mays) = experiment: Test A pre-/postemergence plant response
Text: (§1) Seeds of species selected from barnyardgrass (Echinochloa crus-galli), large crabgrass (Digitaria sanguinalis), giant foxtail (Setaria faberi), blackgrass (Alopecurus myosuroides), canarygrass (Phalaris minor), morningglory (Ipomoea coccinea), pigweed (Amaranthus retroflexus), velvetleaf (Abutilon theophrasti), wheat (Triticum aestivum), and corn (Zea mays) were planted into a blend of loam soil and sand and treated preemergence with a directed soil spray using test chemicals formulated in a non-phytotoxic solvent mixture which included a surfactant. At the same time these species were also treated with postemergence applications of test chemicals formulated in the same manner.
(§2) Plants ranged in height from 2 to 10 cm and were in the one- to two-leaf stage for the postemergence treatment. Treated plants and untreated controls were maintained in a greenhouse for approximately 10 days, after which time all treated plants were compared to untreated controls and visually evaluated for injury. Plant response ratings, summarized in Table A, are based on a 0 to 100 scale where 0 is no effect and 100 is complete control. A dash (-) response means no test results.

[1] = system: large crabgrass (Digitaria sanguinalis); experiment: Test A pre-/postemergence plant response
Text: as §1, §2

[2] = system: velvetleaf (Abutilon theophrasti); experiment: Test A pre-/postemergence plant response
Text: as §1, §2

[3] = system: barnyardgrass (Echinochloa crus-galli); experiment: Test A pre-/postemergence plant response
Text: as §1, §2

[4] = system: morningglory (Ipomoea coccinea); experiment: Test A pre-/postemergence plant response
Text: as §1, §2

[5] = system: giant foxtail (Setaria faberi); experiment: Test A pre-/postemergence plant response
Text: as §1, §2

[6] = system: wheat (Triticum aestivum); experiment: Test A pre-/postemergence plant response
Text: as §1, §2

[7] = system: pigweed (Amaranthus retroflexus); experiment: Test A pre-/postemergence plant response
Text: as §1, §2

rice (Oryza sativa) = experiment: Test B flooded paddy test plant response
Summary of the method: (§3)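 2-leaf plants; pots flooded 3 cm above soil; compound added to paddy water; depth maintained. Greenhouse 13–15 d. Visual rating vs controls, 0 (no effect) to 100 (complete control); dash = no result.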

[8] = system: barnyardgrass (Echinochloa crus-galli); experiment: Test B flooded paddy test plant response
Summary of the method: as §3

[9] = system: ducksalad (Heteranthera limosa); experiment: Test B flooded paddy test plant response
Summary of the method: as §3

[10] = system: umbrella sedge (Cyperus difformis); experiment: Test B flooded paddy test plant response
Summary of the method: as §3

[11] = Postemergence, 125 g ai/ha, 0 to 100 scale, 0 no effect, 100 complete control
[12] = Postemergence, 500 g ai/ha, 0 to 100 scale, 0 no effect, 100 complete control
[13] = Preemergence, 125 g ai/ha, 0 to 100 scale (0 no effect, 100 complete control)
[14] = Preemergence, 500 g ai/ha, 0 to 100 scale (0 no effect, 100 complete control)
[15] = Flood (flooded paddy test), 62 g ai/ha, scale 0 to 100, 0 no effect, 100 complete control
[16] = Flood (flooded paddy test), 250 g ai/ha, scale 0 to 100, 0 no effect, 100 complete control
[17] = Postemergence, 31 g ai/ha, 0 to 100 scale, 0 no effect, 100 complete control
[18] = Preemergence, 31 g ai/ha, 0 to 100 scale, 0 is no effect, 100 is complete control
[19] = Flood (flooded paddy test), 125 g ai/ha, scale 0 to 100, 0 no effect, 100 complete control
[20] = Flood, 31 g ai/ha, scale 0 to 100

## Cc1cc(-n2cc(Cl)cn2)ccc1-c1c(O)cnn(C)c1=O [Compound 60]
Corn (Zea mays); [11]
  Plant response rating, Corn: 40
Corn (Zea mays); [12]
  Plant response rating, Corn: 90
Corn (Zea mays); [13]
  Plant response rating, Corn: 50
Corn (Zea mays); [14]
  Plant response rating, Corn: 90
[1]; [11]
  Plant response rating, Crabgrass, Large: 20
[1]; [12]
  Plant response rating, Crabgrass, Large: 60
[1]; [13]
  Plant response rating, Crabgrass, Large: 20
[1]; [14]
  Plant response rating, Crabgrass, Large: 80
[2]; [11]
  Plant response rating, Velvetleaf: 0
[2]; [12]
  Plant response rating, Velvetleaf: 0
[2]; [13]
  Plant response rating, Velvetleaf: 0
[2]; [14]
  Plant response rating, Velvetleaf: 0
[3]; [11]
  Plant response rating, Barnyardgrass: 30
[3]; [12]
  Plant response rating, Barnyardgrass: 90
[3]; [13]
  Plant response rating, Barnyardgrass: 70
[3]; [14]
  Plant response rating, Barnyardgrass: 100
[4]; [11]
  Plant response rating, Morningglory: 0
[4]; [12]
  Plant response rating, Morningglory: 0
[4]; [13]
  Plant response rating, Morningglory: 0
[4]; [14]
  Plant response rating, Morningglory: 0
[5]; [11]
  Plant response rating, Foxtail, Giant: 50
[5]; [12]
  Plant response rating, Foxtail, Giant: 80
[5]; [13]
  Plant response rating, Foxtail, Giant: 80
[5]; [14]
  Plant response rating, Foxtail, Giant: 100
[6]; [11]
  Plant response rating, Wheat: 0
[6]; [12]
  Plant response rating, Wheat: 50
[6]; [13]
  Plant response rating, Wheat: 0
[6]; [14]
  Plant response rating, Wheat: 50
[7]; [11]
  Plant response rating, Pigweed: 0
[7]; [12]
  Plant response rating, Pigweed: 0
[7]; [13]
  Plant response rating, Pigweed: 0
[7]; [14]
  Plant response rating, Pigweed: 0
Rice (Oryza sativa); [15]
  Plant response rating, Rice: 0
Rice (Oryza sativa); [16]
  Plant response rating, Rice: 30
[8]; [15]
  Plant response rating, Barnyardgrass: 0
[8]; [16]
  Plant response rating, Barnyardgrass: 30
[9]; [15]
  Plant response rating, Ducksalad: 0
[9]; [16]
  Plant response rating, Ducksalad: 0
[10]; [15]
  Plant response rating, Sedge, Umbrella: 0
[10]; [16]
  Plant response rating, Sedge, Umbrella: 0

## Cc1cc(-c2ccc(Cl)cc2)nn1-c1c(OC(=O)N(C)C)cnn(C)c1=O [Compound 64]
Corn (Zea mays); [17]
  Plant response rating, Corn: 0
Corn (Zea mays); [11]
  Plant response rating, Corn: 60
Corn (Zea mays); [18]
  Plant response rating, Corn: 0
Corn (Zea mays); [13]
  Plant response rating, Corn: 30
[1]; [17]
  Plant response rating, Crabgrass, Large: 0
[1]; [11]
  Plant response rating, Crabgrass, Large: 40
[1]; [18]
  Plant response rating, Crabgrass, Large: 0
[1]; [13]
  Plant response rating, Crabgrass, Large: 50
[2]; [17]
  Plant response rating, Velvetleaf: 0
[2]; [11]
  Plant response rating, Velvetleaf: 0
[2]; [18]
  Plant response rating, Velvetleaf: 0
[2]; [13]
  Plant response rating, Velvetleaf: 0
[3]; [17]
  Plant response rating, Barnyardgrass: 0
[3]; [11]
  Plant response rating, Barnyardgrass: 10
[3]; [18]
  Plant response rating, Barnyardgrass: 0
[3]; [13]
  Plant response rating, Barnyardgrass: 0
[4]; [17]
  Plant response rating, Morningglory: 0
[4]; [11]
  Plant response rating, Morningglory: 0
[4]; [18]
  Plant response rating, Morningglory: 0
[4]; [13]
  Plant response rating, Morningglory: 0
[5]; [17]
  Plant response rating, Foxtail, Giant: 30
[5]; [11]
  Plant response rating, Foxtail, Giant: 80
[5]; [18]
  Plant response rating, Foxtail, Giant: 0
[5]; [13]
  Plant response rating, Foxtail, Giant: 50
[6]; [17]
  Plant response rating, Wheat: 0
[6]; [11]
  Plant response rating, Wheat: 0
[6]; [18]
  Plant response rating, Wheat: 0
[6]; [13]
  Plant response rating, Wheat: 0
[7]; [17]
  Plant response rating, Pigweed: 0
[7]; [11]
  Plant response rating, Pigweed: 0
[7]; [18]
  Plant response rating, Pigweed: 0
[7]; [13]
  Plant response rating, Pigweed: 0
Rice (Oryza sativa); [15]
  Plant response rating, Rice: 0
Rice (Oryza sativa); [16]
  Plant response rating, Rice: 0
[8]; [15]
  Plant response rating, Barnyardgrass: 0
[8]; [16]
  Plant response rating, Barnyardgrass: 0
[9]; [15]
  Plant response rating, Ducksalad: 0
[9]; [16]
  Plant response rating, Ducksalad: 0
[10]; [15]
  Plant response rating, Sedge, Umbrella: 0
[10]; [16]
  Plant response rating, Sedge, Umbrella: 0

## CCn1ncc(O)c(-c2cn(-c3ccc(Cl)cc3)nc2C)c1=O [Compound 65]
Corn (Zea mays); [11]
  Plant response rating, Corn: 0
Corn (Zea mays); [12]
  Plant response rating, Corn: 0
Corn (Zea mays); [13]
  Plant response rating, Corn: 0
Corn (Zea mays); [14]
  Plant response rating, Corn: 0
[1]; [11]
  Plant response rating, Crabgrass, Large: 0
[1]; [12]
  Plant response rating, Crabgrass, Large: 20
[1]; [13]
  Plant response rating, Crabgrass, Large: 0
[1]; [14]
  Plant response rating, Crabgrass, Large: 0
[2]; [11]
  Plant response rating, Velvetleaf: 0
[2]; [12]
  Plant response rating, Velvetleaf: 0
[2]; [13]
  Plant response rating, Velvetleaf: 0
[2]; [14]
  Plant response rating, Velvetleaf: 0
[3]; [11]
  Plant response rating, Barnyardgrass: 0
[3]; [12]
  Plant response rating, Barnyardgrass: 0
[3]; [13]
  Plant response rating, Barnyardgrass: 0
[3]; [14]
  Plant response rating, Barnyardgrass: 0
[4]; [11]
  Plant response rating, Morningglory: 0
[4]; [12]
  Plant response rating, Morningglory: 0
[4]; [13]
  Plant response rating, Morningglory: 0
[4]; [14]
  Plant response rating, Morningglory: 0
[5]; [11]
  Plant response rating, Foxtail, Giant: 0
[5]; [12]
  Plant response rating, Foxtail, Giant: 20
[5]; [13]
  Plant response rating, Foxtail, Giant: 0
[5]; [14]
  Plant response rating, Foxtail, Giant: 90
[6]; [11]
  Plant response rating, Wheat: 0
[6]; [12]
  Plant response rating, Wheat: 0
[6]; [13]
  Plant response rating, Wheat: 0
[6]; [14]
  Plant response rating, Wheat: 0
[7]; [11]
  Plant response rating, Pigweed: 0
[7]; [12]
  Plant response rating, Pigweed: 0
[7]; [13]
  Plant response rating, Pigweed: 0
[7]; [14]
  Plant response rating, Pigweed: 0
Rice (Oryza sativa); [15]
  Plant response rating, Rice: 0
Rice (Oryza sativa); [19]
  Plant response rating, Rice: 0
Rice (Oryza sativa); [16]
  Plant response rating, Rice: 15
Rice (Oryza sativa); [20]
  Plant response rating, Rice: 0
[8]; [15]
  Plant response rating, Barnyardgrass: 0
[8]; [19]
  Plant response rating, Barnyardgrass: 0
[8]; [16]
  Plant response rating, Barnyardgrass: 0
[8]; [20]
  Plant response rating, Barnyardgrass: 0
[9]; [15]
  Plant response rating, Ducksalad: 0
[9]; [19]
  Plant response rating, Ducksalad: 0
[9]; [16]
  Plant response rating, Ducksalad: 40
[9]; [20]
  Plant response rating, Ducksalad: 0
[10]; [15]
  Plant response rating, Sedge, Umbrella: 0
[10]; [19]
  Plant response rating, Sedge, Umbrella: 0
[10]; [16]
  Plant response rating, Sedge, Umbrella: 80
[10]; [20]
  Plant response rating, Sedge, Umbrella: 0
